Measured values reported in PMC12298007 (Pharmaceuticals, 2025).
Non-standard residues stand in square brackets, D forms with d. Residues, ends and D or L forms follow the SMILES beside them. *: point of attachment. X1 = O=C(O)CC[C@H](NC(=O)N[C@@H](CCCCNC(=O)CCCCCCC(=O)*)C(=O)O)C(=O)O; d2Nal = N[C@H](Cc1ccc2ccccc2c1)C(=O)O; Mercaptoacetyl = O=C(CS)*

Target: T1, human PSMA (CHO-K1-PSMA cells) (Homo sapiens, UniProt Q04609)
T1 construct: host or cells: CHO-K1 (lentiviral transduction, clone 5)
Experiment: Saturation binding assay on CHO-K1-PSMA cells
Conditions: 2 h at 4 °C
Experimental: Saturation binding experiments were carried out with increasing concentrations of the radiolabeled peptides for 2 h at 4 °C. […] Cells were processed as previously published. […] The next day, the culture medium was replaced with 0.8 mL Ham's F 12 Nutrient Mix (1% FBS), and the cells were kept in the fridge for 30 min before the addition of the radioligand. […] The saturation assay was performed at 4 °C to avoid internalization. […] Total incubation volume per well: 1 mL. […] The obtained fractions and standard aliquots were measured in a γ-counter. […] Human GRPR reverse: [NT] Human β-ACTIN forward: [NT] Human β-ACTIN reverse: [NT] 3.3.4 Western blot Total protein was isolated from cell lines as previously described. PierceTM Coomassie Plus (Bradford) Protein Assay Kit (Thermo Scientific, Cat.Nr. 23236) was used for measuring protein concentrations and 30 μg (for PSMA) or 40 μg (for GRPR) protein per sample was used for SDS-PAGE and Western blot as previously described. PSMA (CST, D4S1F) Rabbit, GRPR (Alomone labs, Cat.Nr. ABR-002) Rabbit, α-Tubulin (Proteintech, Cat.Nr. 66031-1-Ig) Mouse and β-Actin (Proteintech, Cat.Nr. 66009-1-Ig) Mouse antibodies were utilized for detection of protein expression. Secondary antibodies used, included goat anti -rabbit IgG HRP conjugate (JD111036047) and rabbit anti -mouse IgG HRP conjugate (JD315035008). […] (Figure 6B, Table 1, main manuscript). […] 21

T1 sequence (Q04609 whole entry): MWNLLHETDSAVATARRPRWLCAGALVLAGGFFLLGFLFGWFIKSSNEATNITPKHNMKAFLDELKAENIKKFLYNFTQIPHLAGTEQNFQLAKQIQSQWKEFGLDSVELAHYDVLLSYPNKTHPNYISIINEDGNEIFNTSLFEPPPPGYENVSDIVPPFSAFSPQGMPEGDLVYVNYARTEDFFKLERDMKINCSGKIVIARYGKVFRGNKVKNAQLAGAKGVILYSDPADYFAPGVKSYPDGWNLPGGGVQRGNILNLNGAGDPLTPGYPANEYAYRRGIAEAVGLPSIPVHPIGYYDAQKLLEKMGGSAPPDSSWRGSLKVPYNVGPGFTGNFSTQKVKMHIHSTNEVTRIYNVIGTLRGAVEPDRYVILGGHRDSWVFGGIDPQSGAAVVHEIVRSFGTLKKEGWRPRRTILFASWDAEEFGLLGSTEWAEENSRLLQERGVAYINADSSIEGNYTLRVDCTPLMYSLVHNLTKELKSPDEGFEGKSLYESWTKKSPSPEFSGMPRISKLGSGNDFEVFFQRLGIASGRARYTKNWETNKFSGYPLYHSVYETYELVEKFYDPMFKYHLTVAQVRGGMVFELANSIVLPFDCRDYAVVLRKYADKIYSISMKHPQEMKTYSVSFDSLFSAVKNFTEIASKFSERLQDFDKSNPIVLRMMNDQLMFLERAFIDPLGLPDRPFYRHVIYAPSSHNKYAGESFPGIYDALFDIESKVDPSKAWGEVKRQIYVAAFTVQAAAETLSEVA

`O=C(O)CC[C@H](NC(=O)N[C@@H](CCCCNC(=O)CCCCCCC(=O)NCCCC[C@@H](NC(=O)[C@@H](Cc1ccc2ccccc2c1)NC(=O)[C@@H](Cc1ccc(O)cc1)NC(=O)[C@@H](CO)NC(=O)[C@@H](CO)NC(=O)[C@@H](CO)NC(=O)CS)C(=O)O)C(=O)O)C(=O)O` [[^99mTc]Tc-PSMA-I&S, metal not drawn] (Mercaptoacetyl-[dS][dS][dS][dY][d2Nal][dK](X1)-OH) showed a Kd of 3.84 ± 0.44 nM.
